# Laboratory results as given in ChEMBL document CHEMBL6083246 (Bioorg Med Chem, 2024).
# Activity calls are given as the source filed them. The calls are words filed in the database; no cut-off is given here.
# Columns and labels:
# RAW264.7 [1] = assay: Cytotoxicity against mouse RAW264.7 cells assessed as reduction in cell viability at 1080 uM incubated for 24 hrs by CCK8 assay; assay type: toxicity, cell-based; conditions: raw264.7, 24 h
# RAW264.7 [2] = assay: Antiinflammatory activity in LPS induced mouse RAW264.7 cells reduction in ROS production incubated for 24 hrs by DCFH-DA staining based microplate reader analysis; assay type: functional, cell-based
# RAW264.7 [3] = assay: Cytotoxicity against mouse RAW264.7 cells assessed as reduction in cell viability at < 640 uM incubated for 24 hrs by CCK8 assay; assay type: toxicity, cell-based; conditions: raw264.7, 24 h
# RAW264.7 [4] = assay: Antiinflammatory activity in LPS induced mouse RAW264.7 cells assessed as reduction in TNFalpha production at 50 uM incubated for 24 hrs by ELISA; assay type: functional, cell-based
# RAW264.7 [5] = assay: Antiinflammatory activity in LPS induced mouse RAW264.7 cells assessed as reduction in IL-6 production at 50 uM incubated for 24 hrs by ELISA; assay type: functional, cell-based
# RAW264.7 [6] = assay: Antiinflammatory activity in LPS induced mouse RAW264.7 cells reduction in ROS production at 50 uM incubated for 24 hrs by DCFH-DA staining based microplate reader analysis; assay type: functional, cell-based
# RAW264.7 [7] = assay: Antiinflammatory activity in LPS induced mouse RAW264.7 cells assessed as reduction in NO production at 50 uM incubated for 24 hrs by Griess reagent based assay; assay type: functional, cell-based
# RAW264.7 [8] = assay: Antiinflammatory activity in LPS induced mouse RAW264.7 cells assessed as reduction in NO production incubated for 24 hrs by Griess reagent based assay; assay type: functional, cell-based
# [9] = target: Aldo-keto reductase family 1 member B1 (Mus musculus) (UniProt P45376); assay: Induction of thermal stabilization of AKR1B1 in mouse RAW264.7 cells at 50 uM at 45 to 75 degreeC incubated for 2 hrs by cellular thermal shift assay; assay type: cell-based
Structure (SMILES),Activity (RAW264.7 [1]),Activity (RAW264.7 [2]),Activity (RAW264.7 [3]),Activity (RAW264.7 [4]),Activity (RAW264.7 [5]),Activity (RAW264.7 [6]),Activity (RAW264.7 [7]),Activity (RAW264.7 [8]),Activity [9]
O=C(/C=C/c1ccc(O)c(O)c1)O[C@@H]1C[C@](O)(C(=O)O)C[C@@H](O)[C@H]1O [CHLOROGENIC ACID],Toxic,Dose-dependent-effect,Non-toxic,Active; Showed Higher Activity Compared To 4-Cqa And 5-Cqa,Active; Showed Higher Activity Compared To 4-Cqa And 5-Cqa,Active,Active; Showed Higher Activity Compared To 4-Cqa And 5-Cqa,Dose-dependent-effect,Active
O=C(/C=C/c1ccc(O)c(O)c1)O[C@H]1[C@H](O)C[C@](O)(C(=O)O)C[C@H]1O,Toxic,Dose-dependent-effect,Non-toxic,Active; Showed Higher Activity Compared To 5-Cqa,,,,Dose-dependent-effect,Active
CC(/C=C1\SC(=S)N(CC(=O)O)C1=O)=C\c1ccccc1,,,,Active,Active,,,,
O=C(/C=C/c1ccc(O)c(O)c1)O[C@@H]1C[C@@](O)(C(=O)O)C[C@@H](O)[C@@H]1O,Toxic,Dose-dependent-effect,Non-toxic,,,,,Dose-dependent-effect,Active
